Laboratory results: ChEMBL document CHEMBL1201862, “PubChem BioAssay data set” (2004)
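48-hour exposure; five concentrations; linearly interpolated endpoints. At the GI50, growth is halved.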 Activity calls are given as the source filed them. Rule as the data show it: active = GI50 up to about 1.1 µM and inactive = higher.

Key:
Test in all cases: NCI anticancer screen, dose series, 48 h
HCC 2998 = test system: HCC 2998
BT-549 = test system: BT-549
Hs-578T = test system: Hs-578T
OVCAR-5 = test system: OVCAR-5
KM12 = test system: KM12
EKVX = test system: EKVX
SK-MEL-2 = test system: SK-MEL-2
MDA-MB-435 = test system: MDA-MB-435
K562 = test system: K562
NCI-H522 = test system: NCI-H522
MOLT-4 = test system: MOLT-4
SW-620 = test system: SW-620
RPMI-8226 = test system: RPMI-8226
HL-60 = test system: HL-60
SF-539 = test system: SF-539
UACC-257 = test system: UACC-257
HT-29 = test system: HT-29
T47D = test system: T47D
TK-10 = test system: TK-10
OVCAR-4 = test system: OVCAR-4

Measured: GI50

O=C1/C(=C(/Br)I)c2ccccc2-c2ccccc21
inactive: HCC 2998 3.76 µM | BT-549 7.03 µM | Hs-578T 28.6 µM | OVCAR-5 11.9 µM | KM12 14.2 µM | EKVX 18 µM | SK-MEL-2 8.73 µM | MDA-MB-435 8.51 µM | K562 2.36 µM | NCI-H522 2.09 µM | MOLT-4 2.21 µM | SW-620 2.52 µM | RPMI-8226 2.97 µM | SF-539 14.6 µM | UACC-257 6.01 µM | HT-29 6.55 µM | T47D 11.9 µM | TK-10 8.97 µM | OVCAR-4 14.7 µM
active: HL-60 0.248 µM

O=C(/C=C/C(=O)N1CCCC1)N1CCCC1
inactive: HCC 2998 > 100 µM | BT-549 > 100 µM | Hs-578T > 100 µM | OVCAR-5 > 100 µM | KM12 > 100 µM | EKVX > 100 µM | SK-MEL-2 > 100 µM | MDA-MB-435 > 100 µM | K562 > 100 µM | NCI-H522 > 100 µM | MOLT-4 > 100 µM | SW-620 > 100 µM | RPMI-8226 > 100 µM | HL-60 > 100 µM | SF-539 > 100 µM | UACC-257 > 100 µM | HT-29 > 100 µM | T47D > 100 µM | TK-10 > 100 µM | OVCAR-4 > 100 µM

O=c1oc2ccc(Cl)cc2c2ccccc12
inactive: HCC 2998 > 100 µM | BT-549 13.4 µM | Hs-578T 18.3 µM | OVCAR-5 78.3 µM | EKVX 10.8 µM | SK-MEL-2 18.6 µM | MDA-MB-435 > 100 µM | K562 > 100 µM | NCI-H522 48.5 µM | MOLT-4 > 100 µM | SW-620 > 100 µM | RPMI-8226 > 100 µM | HL-60 > 100 µM | SF-539 > 100 µM | UACC-257 > 100 µM | HT-29 > 100 µM | T47D > 100 µM | TK-10 51.6 µM | OVCAR-4 > 100 µM

C/C(=N\NC(=S)N1CCCCCCCCCCCC1)c1ccccn1
active: HCC 2998 0.385 µM | BT-549 0.0991 µM | Hs-578T 0.24 µM | OVCAR-5 0.971 µM | KM12 0.102 µM | EKVX 0.0514 µM | SK-MEL-2 0.299 µM | MDA-MB-435 0.15 µM | K562 0.0223 µM | NCI-H522 0.0855 µM | MOLT-4 0.0318 µM | SW-620 0.0652 µM | HL-60 0.0167 µM | SF-539 0.199 µM | UACC-257 0.0689 µM | HT-29 0.0356 µM | T47D 0.233 µM | TK-10 0.166 µM | OVCAR-4 0.0491 µM

COC(=O)[C@]12CCC(C)(C)C[C@H]1C1=CC[C@@H]3[C@@]4(C)CC[C@H](OC5OC(CO)C(O)C(O)C5OC5OC(CO)C(O)C(O)C5O)C(C)(C)[C@@H]4CC[C@@]3(C)[C@]1(C)CC2 (stereo partly drawn)
inactive: HCC 2998 14.8 µM | BT-549 17.4 µM | Hs-578T 22.5 µM | OVCAR-5 16.6 µM | KM12 12.6 µM | EKVX 11.9 µM | SK-MEL-2 10.7 µM | MDA-MB-435 7.6 µM | K562 10.1 µM | NCI-H522 3.1 µM | MOLT-4 17.5 µM | SW-620 14.2 µM | RPMI-8226 19.3 µM | HL-60 4.93 µM | UACC-257 7.85 µM | HT-29 10.4 µM | T47D 18.3 µM | OVCAR-4 4.43 µM

C=CCC(CCC(C)=O)(C(=O)OCC)C(=O)OCC
inactive: HCC 2998 > 100 µM | BT-549 > 100 µM | Hs-578T > 100 µM | OVCAR-5 > 100 µM | KM12 > 100 µM | EKVX > 100 µM | SK-MEL-2 > 100 µM | MDA-MB-435 > 100 µM | K562 > 100 µM | NCI-H522 > 100 µM | MOLT-4 > 100 µM | SW-620 > 100 µM | RPMI-8226 > 100 µM | HL-60 > 100 µM | SF-539 > 100 µM | UACC-257 > 100 µM | HT-29 > 100 µM | T47D > 100 µM | TK-10 > 100 µM | OVCAR-4 > 100 µM

O=C1c2ccccc2C(=O)c2c(NCC3CO3)ccc(NCC3CO3)c21 (stereo not drawn)
inactive: HCC 2998 9.1 µM | BT-549 3.15 µM | Hs-578T 3.72 µM | OVCAR-5 4.54 µM | KM12 3.85 µM | EKVX > 32.2 µM | MDA-MB-435 1.22 µM | NCI-H522 5.24 µM | SW-620 1.22 µM | RPMI-8226 2.76 µM | SF-539 1.91 µM | UACC-257 7.08 µM | HT-29 1.88 µM | T47D 4.2 µM | TK-10 19 µM | OVCAR-4 10.9 µM
active: K562 0.128 µM | MOLT-4 0.0119 µM | HL-60 < 0.01 µM

COC(=O)CCCc1ccc2c(c1)CCC2
inactive: HCC 2998 > 100 µM | BT-549 > 100 µM | Hs-578T > 100 µM | OVCAR-5 > 100 µM | KM12 > 100 µM | SK-MEL-2 > 100 µM | MDA-MB-435 > 100 µM | NCI-H522 92.3 µM | MOLT-4 > 100 µM | SW-620 > 100 µM | RPMI-8226 > 100 µM | HL-60 > 100 µM | SF-539 > 100 µM | UACC-257 > 100 µM | T47D > 100 µM | TK-10 > 100 µM | OVCAR-4 > 100 µM

NCCCCNCCCNC(=O)CNC(=O)CC(O)C(N)CCCC(NC(=O)C(CN)NC(=O)C(O)CNC(=O)CC(N)c1ccc(O)cc1)C(=O)O (stereo not drawn)
inactive: HCC 2998 > 10 µM | BT-549 > 10 µM | Hs-578T > 10 µM | OVCAR-5 > 10 µM | KM12 > 10 µM | EKVX > 10 µM | SK-MEL-2 > 10 µM | MDA-MB-435 > 10 µM | K562 > 10 µM | NCI-H522 > 10 µM | MOLT-4 > 10 µM | RPMI-8226 > 10 µM | HL-60 > 10 µM | SF-539 > 10 µM | UACC-257 > 10 µM | HT-29 > 10 µM | T47D > 10 µM | TK-10 > 10 µM | OVCAR-4 > 10 µM

C[C@@H](CC(=O)O)OC1OC(COC(=O)C(C)(C)C)C(OC(=O)C(C)(C)C)C(OC(=O)C(C)(C)C)C1OC(=O)C(C)(C)C (stereo partly drawn)
inactive: HCC 2998 35 µM | BT-549 57 µM | Hs-578T 58.7 µM | OVCAR-5 > 100 µM | KM12 45.7 µM | EKVX 93.5 µM | SK-MEL-2 49 µM | MDA-MB-435 53.3 µM | K562 34.4 µM | NCI-H522 57 µM | MOLT-4 38.6 µM | SW-620 45.4 µM | RPMI-8226 26.4 µM | HL-60 21.9 µM | SF-539 52.8 µM | UACC-257 > 100 µM | HT-29 39 µM | T47D 45.9 µM | TK-10 99.3 µM

Clc1ncnc2c1nc(C#Cc1ccccc1)n2Cc1ccccc1
inactive: HCC 2998 11.4 µM | BT-549 20.8 µM | Hs-578T 53 µM | OVCAR-5 > 100 µM | KM12 23.6 µM | EKVX 13.3 µM | SK-MEL-2 30 µM | MDA-MB-435 11.9 µM | K562 3.67 µM | NCI-H522 16.4 µM | MOLT-4 3.34 µM | SW-620 4.09 µM | HL-60 7.83 µM | SF-539 29.9 µM | UACC-257 25.8 µM | HT-29 24.3 µM | T47D 39.8 µM | TK-10 > 100 µM | OVCAR-4 16.7 µM

N[C@H](CCC(=O)NCP(=O)(O)O)C(=O)O
inactive: HCC 2998 > 100 µM | BT-549 > 100 µM | Hs-578T > 100 µM | OVCAR-5 > 100 µM | KM12 > 100 µM | EKVX > 100 µM | SK-MEL-2 > 100 µM | MDA-MB-435 > 100 µM | K562 > 100 µM | NCI-H522 > 100 µM | MOLT-4 > 100 µM | SW-620 > 100 µM | RPMI-8226 > 100 µM | HL-60 > 100 µM | SF-539 > 100 µM | UACC-257 > 100 µM | HT-29 > 100 µM | T47D > 100 µM | TK-10 10.5 µM

CC(C)NC(=O)OCc1c(COC(=O)NC(C)C)n(C)c2c1ccc1ccsc12
inactive: HCC 2998 14.4 µM | BT-549 7.16 µM | Hs-578T 8.87 µM | OVCAR-5 17 µM | KM12 15.3 µM | EKVX 17.5 µM | SK-MEL-2 12.7 µM | MDA-MB-435 7.35 µM | K562 8.97 µM | NCI-H522 5.09 µM | MOLT-4 1.71 µM | SW-620 5.19 µM | RPMI-8226 2.94 µM | HL-60 2.69 µM | UACC-257 13.5 µM | HT-29 12.1 µM | T47D 15.5 µM | TK-10 22.2 µM | OVCAR-4 3.61 µM

CN(C)CCNC(=O)c1cccc(C(=O)Nc2ccccc2)c1[N+](=O)[O-]
inactive: HCC 2998 > 100 µM | BT-549 34 µM | Hs-578T > 100 µM | OVCAR-5 > 100 µM | KM12 > 100 µM | SK-MEL-2 > 100 µM | MDA-MB-435 > 100 µM | K562 > 100 µM | NCI-H522 > 100 µM | MOLT-4 > 100 µM | SW-620 > 100 µM | HL-60 > 100 µM | SF-539 > 100 µM | UACC-257 > 100 µM | HT-29 71.8 µM | T47D > 100 µM | TK-10 > 100 µM

FC(F)(F)c1ccc2nc(Sc3ccc4ccccc4c3)cnc2c1
inactive: HCC 2998 52 µM | BT-549 > 100 µM | Hs-578T > 100 µM | OVCAR-5 > 100 µM | KM12 > 100 µM | EKVX 94 µM | SK-MEL-2 23.1 µM | MDA-MB-435 55.2 µM | K562 45.8 µM | NCI-H522 37.5 µM | MOLT-4 24.5 µM | SW-620 77.4 µM | HL-60 31.6 µM | SF-539 36.3 µM | UACC-257 43.8 µM | HT-29 87.3 µM | T47D 23.1 µM | TK-10 > 100 µM | OVCAR-4 51.5 µM
